The structures appear in SMILES notation.

For 86 compounds, melting point results are on record in a melting point compilation (Tetko et al.; mined from patent text by program, amines drawn as free bases though some values may be those of a salt).

As for `CON=C1CN(c2c(F)c(N)c3c(=O)c(C(=O)O)cn(C4CC4)c3c2F)CC12CN(C(=O)OC(C)(C)C)C2`, the melting point fell in the range of 256 to 257 °C.

Take `CCCCCCCCCCCCS(=O)(=O)c1cc(C(=O)O)c([N+](=O)[O-])c(S(=O)(=O)CCCCCCCCCCCC)c1`: the melting point is 153 to 154 °C.

In the case of `CC(C)CCOc1ccc(S(=O)(=O)C2(C(=O)NO)CCN(Cc3ccccc3)CC2)cc1`, the melting point was determined as 106 °C.

In turn, `CN1CC(CCCl)Oc2cc(Cl)ccc2C1=O` (stereo unspecified) registered a melting point of 85 to 87 °C.

Compound `CCN1C(=O)C(C)(C)C(=O)N(C)c2cc(CN(CCn3ccc4oc(C)cc4c3=O)Cc3ccc(C=O)cc3)ccc21` returned a melting point of 153 to 155 °C.

Compound `CC(C)c1c[nH]c(S)n1` came in with a melting point of 147 to 150 °C.

`CC(=O)NCc1ccc(CC[N+]2([O-])CCC(C3CCc4ccccc43)CC2)cc1` (stereo unspecified) registered a melting point of 130 to 131 °C.

Take `CN(C)S(=O)(=O)c1ccc(COc2cccc3c2CN(C2CCC(=O)NC2=O)C3=O)cc1` (stereo unspecified): the melting point fell in the range of 261 to 263 °C.

The compound `COc1ccc(-c2c(Cl)c(CN3CCCC3=O)nc3sc4c(c23)CCN(Cc2ccccc2)C4)cc1OC` yielded a melting point of 139 to 140 °C.

Regarding `O=C(NCc1cncc(F)c1)c1ccc(S(=O)(=O)n2cc(-c3ccccc3)c3ccccc32)cc1`, the melting point amounted to 131 °C.

Take `CCOC(=O)[C@H](Cc1cccc(-c2ccc3ccccc3c2)c1)NC(=O)C(F)(F)F`: the melting point lay in the range of 89 to 91 °C.

With `O=c1oc(-c2ccc(CCc3ccccc3)cc2)cc(O)c1SCCc1ccccc1`, the melting point is 122 to 123 °C.

Consider `COc1ccccc1OC(=O)CNC(=O)C(C)SC(=O)c1cccs1` (stereo unspecified), for which the melting point was 90.5 to 92 °C.

On to `CC(C)CC(C(=O)O)c1cc(OCC2CC2)c(-c2ccc(C(F)(F)F)cc2)cc1F` (stereo unspecified), for which the melting point was in the range of 110 to 111 °C.

`O=S(=O)(c1ccc(Cl)cc1)N1CCC[C@@H](Nc2nccc(-c3c(-c4cccc(CO)c4)nc4sccn34)n2)C1` showed a melting point of 150 to 155 °C.

In turn, `Cc1csc2[nH]c(=O)oc(=O)c12` registered a melting point of 220 °C.

Compound `CC(O)CNCc1cc2c(=O)c(C(=O)NCc3ccc(Cl)cc3)cn(C)c2o1` (stereo unspecified) showed a melting point of 172 to 173 °C.

For the compound `CC(=O)Nc1ccc(C#Cc2c(F)c(F)nc(F)c2F)cc1`, the melting point lay in the range of 189 to 190 °C.

Regarding `COC(=O)[C@H](Cc1ccccc1)NC(=O)CCC(=O)[C@H](Cc1ccccc1)NC(=O)c1ccccc1`, the melting point lay in the range of 106 to 109 °C.

The compound `Cc1cc(=O)n2nc(SCc3ccc(Cl)cc3)sc2n1` came in with a melting point of 138 to 140 °C.

In the case of `OCc1csc(Nc2ccc(Oc3ccccc3)cn2)n1`, the melting point fell in the range of 130 to 131 °C.

The compound `COc1ccc(/C=C(\C#N)c2c(F)c(F)c(F)c(F)c2F)cc1OC1CCCC1` yielded a melting point of 94.5 to 96 °C.

`CON(C(=O)c1cn(C)nc1C(F)F)C(C)C1CC1c1ccc(Cl)cc1Cl` (stereo unspecified) yielded a melting point of 133 to 135 °C.

Compound `Cc1c(F)cccc1C(=O)Nc1ccc(C(=O)N2CCCC(=O)c3sccc32)cc1` registered a melting point of 200 to 202 °C.

In the case of `COc1cc(OC)c(-c2cc3ccccc3[nH]2)cc1C=CC(=O)c1ccc(S(=O)(=O)NC(C)=O)cc1`, the melting point was in the range of 218 to 220 °C.

`COc1ccc(COc2cc(NC(C)=O)c(Cl)cc2C(=O)CCCCCl)cc1` came in with a melting point of 147 to 149 °C.

Take `CCCc1nc(C(O)CCC)c(C)[nH]1` (stereo unspecified): the melting point fell in the range of 169 to 171 °C.

The compound `Cc1nnn2c1CO[C@H]1CN(C(=O)OC(C)(C)C)C[C@@H]12` had a melting point of 195 to 196 °C.

As to `Cc1ccc(NC(=O)Oc2ccc3c(c2)NCCC3)cc1`, the melting point came to 128 °C.

In turn, `CSCc1noc(C(C)c2ccc(-c3ccccc3)c(F)c2)n1` (stereo unspecified) registered a melting point of 55.5 to 56 °C.

As for `O=C(C[C@H](NC(=O)c1ccccc1)C(=O)O)c1ccc2oc3ccccc3c2c1`, the melting point was 124 to 130 °C.

Consider `c1nnc2cc3c(cc2c1NCC1CCCO1)OCO3` (stereo unspecified), for which the melting point is 196 to 198 °C.

In turn, `C#CCN(c1cc(-n2nc3ccc(Cl)cn3c2=O)c(F)cc1C#N)S(=O)(=O)CC` displayed a melting point of 176 to 178 °C.

`NS(=O)(=O)Cc1nc(-c2ccc(Cl)c(Cl)c2)cs1` had a melting point of 187 to 190 °C.

On to `O=C(O)CCCCCCNC(=O)C(CS)Cc1ccccc1` (stereo unspecified), for which the melting point was in the range of 71 to 73 °C.

`O=C1NCCCC1Cc1ccccc1` (stereo unspecified) had a melting point of 120 to 123 °C.

As for `CC(C)c1cccc(C(C)C)c1NC(=O)CN1CC2(CCCCC2)N(c2ccccc2)S1(=O)=O`, the melting point lay within 140 to 142 °C.

Compound `COc1cc(-c2ccc3n[nH]c(=O)n3n2)cc(OC)c1OC` registered a melting point of 289 to 290 °C.

For `Oc1cc(/C=C/c2ccccc2)cc(O)c1O`, the melting point was 172 °C.

In turn, `CC(C(=O)O)c1ccc(CC2CCCCC2=O)cc1` (stereo unspecified) registered a melting point of 84 to 86 °C.

The compound `O=C(c1ccc2[nH]cnc2c1)N1CCC[C@H](c2nc(-c3ccc(F)cc3)no2)C1` showed a melting point of 110 to 115 °C.

`OCCCCOc1ccc2cc(O)ccc2c1`: the melting point was in the range of 148 to 150 °C.

For `CC(C)n1cc(-c2nc(C(N)=O)c(N)nc2-c2ccccc2)ccc1=O`, the melting point fell in the range of 240 to 245 °C.

Consider `O=c1c2c(Cl)cccc2nc(CSc2ncnc3[nH]cnc23)n1-c1ccccc1Cl`, for which the melting point was 234 °C.

As for `CNC(=O)c1nc(C)n2c1CN=C(c1ccccc1)c1cc(Cl)ccc1-2`, the melting point was in the range of 260 to 263 °C.

`Cc1ccccc1C(=O)NCN1CCN(c2ncccc2C#N)CC1`: the melting point fell in the range of 124 to 127 °C.

Regarding `CCOC(=O)c1cn(-c2nonc2C)c2nc(Cl)c(F)cc2c1=O`, the melting point was in the range of 211 to 216 °C.

Turning to `COC(=O)/C=C/c1ccc(C=O)s1`, the melting point was in the range of 61 to 62.5 °C.

As for `Cc1cccc(CC(NC(=O)C(c2ccccc2)c2ccccc2)C(=O)NC(C#N)COCc2cccc(C(=O)O)c2)c1` (stereo unspecified), the melting point lay within 160 to 162 °C.

Consider `Fc1cc(CC2(Cc3ccnc(F)c3)c3cccnc3-c3sccc32)ccn1`, for which the melting point is 157 to 159 °C.

Take `O=C(O)CCn1c(=O)n(CCCN2CCC(OC(c3ccccc3)c3ccccc3)CC2)c(=O)c2ccccc21`: the melting point fell in the range of 237 to 238 °C.

In turn, `COC1OCC[C@@H]1NC(=O)[C@H](CC(C)C)NC(=O)[C@H](CC(C)C)NC(=O)[C@H](CC(C)C)NC(=O)c1ccc2c(c1)Nc1ccccc1S2` (stereo partly specified) came in with a melting point of 164 to 165 °C.

Compound `COc1ccc(Nc2nnc(Cc3ccncc3)c3ccccc23)cc1Cl` showed a melting point of 195 to 197 °C.

In the case of `C=CCOC(=O)c1ccccc1OS(=O)(=O)NC(=O)Nc1nc(OC)cc(OC)n1`, the melting point was in the range of 110 to 112 °C.

`COc1ccc(-n2cccc2-c2ccc(S(C)(=O)=O)cc2)cc1OC` gave a melting point of 124 to 126 °C.

`N#Cc1nn(-c2c(Cl)cc(C(F)(F)F)cc2Cl)c(N)c1C=O` registered a melting point of 194 to 197 °C.

In the case of `CCCCCCCOc1ccc(-c2ccc(OCC(C)CC)nn2)cc1` (stereo unspecified), the melting point stood at 91 °C.

In turn, `CC(C)Cc1ccc(CCc2cc3c(s2)NC(=S)C(C)N=C3c2ccccc2Cl)cc1` (stereo unspecified) registered a melting point of 188 to 191 °C.

The compound `Fc1ccc(Nc2ncnc3cnc(NCC45CCN(CC4)CC5)nc23)cc1Cl` displayed a melting point of 221 to 223 °C.

The compound `CCCCc1[nH]c(Cc2ccccc2)nc(=O)c1Cc1ccc(-c2ccccc2C(=O)O)cc1` displayed a melting point of 219 °C.

Take `CC(CCc1nnn[nH]1)Cc1ccc(OCc2ccc3ccccc3n2)cc1` (stereo unspecified): the melting point fell in the range of 75 to 77 °C.

Take `O=C(Nc1ccc(F)cc1F)Nc1cnc2cnccc2c1-c1ccccc1Cl`: the melting point lay within 213 to 216 °C.

`CCOC(=O)c1c[nH]c2c(cc(Cl)c3c(=O)c(C(=O)OCC)c[nH]c32)c1=O` showed a melting point of 285 to 288 °C.

For `CCN1C(=O)C(C)(C)C(=O)N(C)c2cc(CN(CCn3ccc4oc(C)cc4c3=O)Cc3nc(C)n4ccccc34)ccc21`, the melting point lay in the range of 104 to 109 °C.

The compound `NC(=S)C=Cc1ccc(SC(F)(F)F)cc1` had a melting point of 143 to 144 °C.

In turn, `CC(=O)NNCC1CC2c3cccc4c3c(cn4C)CC2N(C)C1` (stereo unspecified) came in with a melting point of 190 to 192 °C.

`O=C(c1ccc([N+](=O)[O-])c(O)c1)N1CCOCC1` registered a melting point of 106 °C.

Turning to `C[C@@H]1CN(CC(=O)Nc2nc3ccccc3n2C)C[C@H](C)N1c1ncnc2sccc12`, the melting point stood at 200 °C.

Turning to `Cc1cc(N2CC=CCC2)nn2cnnc12`, the melting point was 103 to 106 °C.

Consider `COc1cc(-c2c(Cl)c(CNC(C)(C)C)nc3sc4c(c23)CCNC4)ccc1OC(C)C`, for which the melting point was in the range of 157 to 158 °C.

For the compound `CCOc1ccc2c(c1)CC(=O)c1cc(C(C)C(N)=O)ccc1S2` (stereo unspecified), the melting point lay in the range of 128 to 130 °C.

Take `c1ccc2c(c1)nc(-c1ccc3c(c1)OCO3)n2Cc1ccncc1`: the melting point lay in the range of 166 to 167 °C.

`O=C(O)Cc1cc2c(c(C(=O)O)c1)NC(C(F)(F)F)CC2` (stereo unspecified) gave a melting point of 195 to 196 °C.

`C[C@@H](O)[C@H](NC(=O)c1ccc(F)c(Br)c1)C(=O)NO` registered a melting point of 152 to 153 °C.

`O=C(Nc1cnc2cc[nH]c2c1)c1cc2cc(F)ccc2n1Cc1cccc(F)c1` showed a melting point of 277 to 278 °C.

For the compound `FC(F)(F)c1cccc(C2OC3(CCNCC3)N3CCCCC23)c1` (stereo unspecified), the melting point fell in the range of 158 to 160 °C.

`Cc1ccc(C#Cc2ccc(NC(=O)OC(C)(C)C)c(N)c2)cc1` showed a melting point of 175 °C.

Compound `Cc1cn(COCCO)c(=O)[nH]c1=O` returned a melting point of 138 to 140 °C.

In the case of `CCOC(=O)C(=CNc1ncnc2ccccc12)C(=O)OCC`, the melting point fell in the range of 115 to 117 °C.

In turn, `Cc1c(-c2ncc(Cl)cc2F)nn(C)c1C#N` returned a melting point of 144 to 146 °C.

For the compound `O=c1[nH]nc(Cl)cc1Nc1ccc(-c2ccncc2)nn1`, the melting point was in the range of 263 to 265 °C.

Compound `CCOC(=O)NC(=S)C1=C(N2CCOCC2)CCC1` displayed a melting point of 114 to 118 °C.

Consider `Cc1ccc(C(=O)NCc2cccnc2)c(Nc2ccc3cn[nH]c3c2)n1`, for which the melting point is 170 to 172 °C.

Compound `COC1(C=Cc2ccc(C=O)cc2)OOCCOO1` displayed a melting point of 95 to 97 °C.

Consider `CN(C)CCc1cccc(N2C(=O)N(c3c(Cl)cccc3Cl)Cc3cnc(Nc4ccccc4)nc32)c1`, for which the melting point lay within 101 to 105 °C.

Compound `CNC(=O)N1CC(Oc2ccc(Cl)cc2)C1` registered a melting point of 144 to 145 °C.
